{
  "source": "paper PMC10056986",
  "about": "(Pharmaceuticals, 2023)",
  "key": {"[1]": {"test_system": "Baloxavir-resistant influenza A/PR/8/34 (H1N1) (PA I38T)", "assay_type": "cell-based, Influenza A virus", "conditions": "read-out: EC50 (mean ± SD)"}, "[2]": {"test_system": "influenza A virus with PA I38T substitution", "conditions": "cited from earlier work"}, "[3]": {"test_system": "Oseltamivir-resistant influenza virus strain A/Weiss/43 (H1N1)-4", "test": "microbe, parasite or virus in culture", "assay_type": "cell-based", "conditions": "unidentified influenza virus, H1N1, MDCK, read-out: EC50 (mean ± SD)"}, "[4]": {"test_system": "Oseltamivir-resistant influenza virus strain A/Weiss/43 (H1N1)-5", "test": "microbe, parasite or virus in culture", "assay_type": "cell-based", "conditions": "unidentified influenza virus, H1N1, MDCK, read-out: EC50 (mean ± SD)"}},
  "data": [
    {"smiles": "O=C1c2c(O)c(=O)ccn2N([C@@H]2c3ccccc3SCc3c2ccc(F)c3F)[C@@H]2COCCN12", "note": "[Baloxavir]", "values": [
      {"measurement": "EC50", "setting": "[1]", "result": "89.4 ± 11.9", "unit": "nM"},
      {"measurement": "EC50 change due to PA I38T substitution", "setting": "[2]", "result": "30-50 fold"}
    ]},
    {"smiles": "CCOC(=O)C1=C[C@@H](OC(CC)CC)[C@H](NC(C)=O)[C@@H](N)C1", "note": "[Oseltamivir]", "values": [
      {"measurement": "EC50", "setting": "[3]", "result": "> 100000", "unit": "nM"},
      {"measurement": "EC50", "setting": "[4]", "result": "> 100000", "unit": "nM"}
    ]},
    {"smiles": "O=C(O)[C@H]1C2CCC(CC2)[C@@H]1Nc1nc(-c2c[nH]c3ncc(F)cc23)ncc1F", "note": "[VX-787, reference compound]", "values": [
      {"measurement": "EC50", "setting": "[3]", "result": "0.234 ± 0.094", "unit": "nM"},
      {"measurement": "EC50", "setting": "[1]", "result": "0.434 ± 0.052", "unit": "nM"},
      {"measurement": "EC50", "setting": "[4]", "result": "0.216 ± 0.053", "unit": "nM"}
    ]},
    {"smiles": "O=C(O)[C@H]1C2CCC(CC2)[C@@H]1Nc1nc(-c2n[nH]c3ncc(F)cc23)nc(C2CC2)c1F", "note": "[ZSP1273]", "values": [
      {"measurement": "EC50", "setting": "[3]", "result": "0.014 ± 0.006", "unit": "nM"},
      {"measurement": "EC50", "setting": "[1]", "result": "0.028 ± 0.013", "unit": "nM"},
      {"measurement": "EC50", "setting": "[4]", "result": "0.017 ± 0.004", "unit": "nM"}
    ]}
  ]
}
